Experimental findings from PubChem BioAssay AID1996 are described below.

In brackets after ≈: the same amount, converted by molar mass. Bounds are passed on as bounds.

For the series the following is noted: buffer; pH 7.4; 200.0 µM.
For orientation: solubility (kinetic) means the concentration staying in solution when a stock, usually in DMSO, is diluted into the medium. In the case of `COC(=O)[C@H](Cc1ccccc1)NC(=O)N1CCCCC1`, the kinetic solubility was more than 43.6 µg/mL.
Compound `CN(C)C(=O)C1CC(=O)OC12CCCCC2` (centres undefined) showed a solubility (kinetic) of 28.2 µg/mL (≈ 125 µM).
In turn, `CN(C)c1ncc(S(=O)(=O)c2ccccc2)c(=O)[nH]1` yielded a solubility (kinetic) of more than 41.9 µg/mL.
To `CCOC(=O)c1ccc(NC(=O)C2C3CCCCC32)cc1` (centres undefined) belongs less than 0.6 µg/mL; to `N#Cc1c(CSCC(=O)O)cc(=O)n2c1[nH]c1ccccc12`, 46.9 µg/mL (≈ 150 µM); to `C=CCSc1nc(C)cc2c1C(=O)OC2`, more than 33.2 µg/mL.
As for `COc1ccc(CNC(=O)COC(=O)c2ccc(S(=O)(=O)NCc3ccco3)cc2)cc1`, the figure is 8 µg/mL (≈ 17.4 µM); as for `Cc1nn(-c2ccccc2)c(Cl)c1C(=O)N1CCN(C)CC1`, more than 47.8 µg/mL; as for `O=[N+]([O-])c1ccc2ccn(C3OCC(O)C(O)C3O)c2c1` (centres undefined), more than 44.1 µg/mL.
To `COc1ccc(-n2cc(-c3ccccc3)c3c(=S)nc[nH]c32)cc1` belongs 0.6 µg/mL (≈ 1.8 µM).
`COc1ccccc1C(=O)Nc1ccc(NC(=O)C2CCCCC2)nc1`: the kinetic solubility stood at 0.9 µg/mL (≈ 2.55 µM).
As to `O=C1NC(=O)N(Cc2ccc(F)cc2)C(=O)/C1=C\C=C\c1ccco1`, the solubility (kinetic) turned out to be 10 µg/mL (≈ 29.4 µM).
As for `O=C(Nc1cnccn1)Nc1ccccc1F`, the figure is 8.7 µg/mL (≈ 37.5 µM); as for `N#C/C(=C\c1ccc(-c2ccccc2[N+](=O)[O-])o1)C(N)=O`, 2.2 µg/mL (≈ 7.77 µM); as for `CCOC(=O)c1cnc2ccccc2c1NCc1ccco1`, 11.3 µg/mL (≈ 38.1 µM).
As for `Cc1nnc(SCC(=O)N(C)C2CCCCC2)n1C`, the figure is more than 42.4 µg/mL; as for `C=CCNC(=O)c1ccc(NC(=O)C2=CSCCO2)cc1`, more than 45.7 µg/mL.
`Cl.c1cc(CNC23CC4CC(CC(C4)C2)C3)ccn1` registered a kinetic solubility of more than 47.3 µg/mL.
In the case of `O=C1NC(=O)N(CC2CCCO2)C(=O)/C1=C/c1cccs1` (centres undefined), the kinetic solubility is more than 46 µg/mL.
As for `CC(NCc1ccccc1C(F)(F)F)C(O)c1ccccc1.Cl` (centres undefined), the figure is more than 51.9 µg/mL; as for `CC1(C)Cc2cccc(OCC(=O)NCc3ccccc3F)c2O1`, more than 49.4 µg/mL; as for `CN(C)/C=C/c1[nH]c(=O)[nH]c(=O)c1[N+](=O)[O-]`, more than 33.9 µg/mL.
Take `CCOc1nc(C)cc(C)c1S(=O)(=O)c1cccc(Cl)c1`: the kinetic solubility amounted to 6.2 µg/mL (≈ 19 µM).
`CCn1c(C)nnc1SCC(=O)Nc1ccccc1Cl` came in with a solubility (kinetic) of more than 46.6 µg/mL.
Turning to `Cc1ccc(-c2csc3nc(C(C)C)oc(=O)c23)c(C)c1`, the solubility (kinetic) came out at 3.9 µg/mL (≈ 13 µM).
As for `CCc1ccc(Nc2c([N+](=O)[O-])c(=O)oc3ccccc23)cc1`, the figure is 1.4 µg/mL (≈ 4.51 µM); as for `S=C1NCN(Cc2cccnc2)CN1c1cccc(Cl)c1`, more than 47.8 µg/mL.
As for `COC(=O)c1cc(OC)c(OC)cc1NC(=O)CSCc1c(C)noc1C`, the figure is 15.6 µg/mL (≈ 39.5 µM); as for `Cc1cccc(N2CCN(C(=O)N3CCCCC3)CC2)c1C`, 26.3 µg/mL (≈ 87.2 µM); as for `C/C(=C\c1cccc(Cl)c1Cl)C(=O)c1c(C)cc(C)[nH]c1=O`, 3.5 µg/mL (≈ 10.4 µM).
To `Cl.O=C(/C=C/c1ccco1)OCC1CCCN2CCCCC12` (centres undefined) belongs more than 48.9 µg/mL.
In the case of `Cc1cc(C)c(S(=O)(=O)c2ccccc2F)c(=O)[nH]1`, the kinetic solubility is more than 42.2 µg/mL.
In turn, `COc1ccc(CCNC(=O)[C@@H](NC(N)=O)C(C)C)cc1` had a solubility (kinetic) of more than 44 µg/mL.
On to `C=CCOc1cccc(/C=C/c2nc3ccccc3c(=O)[nH]2)c1`, for which the solubility (kinetic) was more than 45.7 µg/mL.
`CCCn1c(SCC(=O)NC)nc2sc3c(c2c1=O)CCC3` displayed a solubility (kinetic) of 5.5 µg/mL (≈ 16.3 µM).
To `O=C(Nc1ccccc1C(F)(F)F)N1CCN(c2ccccn2)CC1` belongs 49.9 µg/mL (≈ 142 µM); to `Cc1cccc(NC(=O)CN2C(=O)NC3(CCCCCCC3)C2=O)c1C`, 49 µg/mL (≈ 137 µM).
To `O=C1[C@@H]2CSCN2C(=O)CN1Cc1ccccc1F` belongs more than 42 µg/mL; to `COc1cccc(NCc2cc(=O)oc3cc(C)c(C(C)C)cc23)c1`, 2.8 µg/mL (≈ 8.3 µM); to `O=C(Nc1ccccc1)N1CCN(CCc2ccccc2)CC1`, 41.6 µg/mL (≈ 134 µM).
As for `O=C(CN1C(=O)C(=O)N(Cc2ccco2)C1=O)Nc1ccc(F)c(F)c1F`, the figure is 52.4 µg/mL (≈ 137 µM); as for `Cc1cc(-c2cccs2)c(C#N)c(=S)[nH]1`, 28.3 µg/mL (≈ 122 µM).
`Cc1ccc2c(COC(=O)C3CSC4(C)CCC(=O)N34)cc(=O)oc2c1C` (centres undefined) returned a solubility (kinetic) of 38.4 µg/mL (≈ 99.1 µM).
Take `O=C(c1cc2ccccc2o1)N1CCN(c2ccccn2)CC1`: the solubility (kinetic) worked out at 11.4 µg/mL (≈ 37.1 µM).
As to `C(=C\c1ccccc1)/CSc1nc2ncccc2[nH]1`, the solubility (kinetic) came out at 8.9 µg/mL (≈ 33.3 µM).
For the compound `O=C(COC(=O)c1ccc(F)cc1)NCC1COc2ccccc2O1` (centres undefined), the kinetic solubility is more than 51.8 µg/mL.
`COc1ccc(NC(=O)c2c(N)no[n+]2[O-])cc1` yielded a kinetic solubility of 3 µg/mL (≈ 12 µM).
For `COC(=O)c1cc(=O)c2cccc(OC)c2[nH]1`, the kinetic solubility is more than 35 µg/mL.
As for `CCOC(=O)C1=C(C)NC(=O)NC1c1cccs1` (centres undefined), the figure is more than 39.9 µg/mL; as for `Cc1cc(C)n2nc(SCC(=O)N3CC(C)CC(C)C3)nc2n1` (centres undefined), more than 50 µg/mL; as for `Cc1ccc(OCCc2csc(N)n2)cc1`, 34.8 µg/mL (≈ 149 µM).
In turn, `Cc1ccc(S(=O)(=O)NCCCC(=O)N2CCC(C)CC2)cc1` gave a solubility (kinetic) of more than 50.8 µg/mL.
To `CCN(CC(=O)N1CCCC1)S(=O)(=O)c1ccc(OC)cc1` belongs 44.7 µg/mL (≈ 137 µM).
As for `O=C(Nc1ccc(S(=O)(=O)N2CCc3ccccc32)cc1)C(F)(F)F`, the figure is more than 55.6 µg/mL.
As for `CCCC(=O)Nc1cc(C)cn(Cc2c(F)cccc2Cl)c1=O`, the figure is 41.3 µg/mL (≈ 123 µM); as for `COc1ccc(NC(=O)c2ccccc2-c2ccccc2C(=O)O)cc1`, more than 52.1 µg/mL.
For `Cc1ccc(NS(=O)(=O)c2cccc(C(=O)N3CCCCC3)c2)cc1`, the solubility (kinetic) is more than 53.8 µg/mL.
As for `O=S(=O)(NCCc1ccc(Cl)cc1)c1cccs1`, the figure is more than 45.3 µg/mL; as for `COc1cccc2cc(C(=O)NC3CC4CCC3C4)oc12` (centres undefined), 31.6 µg/mL (≈ 111 µM).
Turning to `CCOc1ccc(CNCCCSc2ncccn2)cc1`, the kinetic solubility is more than 45.5 µg/mL.
Take `O=C(CCc1ccc(O)c(O)c1)N/N=C/c1ccc2c(c1)OCO2`: the kinetic solubility is more than 49.2 µg/mL.
For `CC(C)C(=O)Nc1ncc(Cc2ccccc2Cl)s1`, the kinetic solubility was less than 0.3 µg/mL.
`CS(=O)(=O)c1ccc(-c2csc(-c3cccnc3)n2)cc1` came in with a kinetic solubility of 5.6 µg/mL (≈ 17.7 µM).
To `O=C(Nc1ccccc1)Nc1ccc(Cl)nc1Cl` belongs 3.9 µg/mL (≈ 13.8 µM).
In turn, `O=C(CCc1ccccc1)NC1CCS(=O)(=O)C1` (centres undefined) came in with a solubility (kinetic) of more than 40.1 µg/mL.
With `COc1ccc(OC)c(/C=C2\N=C(c3ccccc3)OC2=O)c1`, the solubility (kinetic) was found to be 0.8 µg/mL (≈ 2.59 µM).
The compound `Cc1ccc(C(=O)NC2=NCCS2)cc1Cl` had a kinetic solubility of 3.1 µg/mL (≈ 12.2 µM).
To `Cc1ccnc2nc(NC(=O)c3ccco3)nn12` belongs more than 36.5 µg/mL.
The compound `Cc1ccc(NC(=O)COC(=O)C2CCC2)cc1S(=O)(=O)N1CCOCC1` gave a solubility (kinetic) of more than 59.5 µg/mL.
Take `Cc1ccc(OCC(=O)NCCCNC(=O)c2cccnc2)cc1`: the solubility (kinetic) is more than 49.1 µg/mL.
As for `CSCC[C@H](NC(=O)Nc1ccc(Oc2ccccc2)cc1)C(=O)O`, the figure is more than 54.1 µg/mL.
The compound `NC(=O)C1CCCN(C(=O)c2ccc3c(c2)NC(=O)CS3)C1` (centres undefined) showed a solubility (kinetic) of more than 47.9 µg/mL.
Compound `COc1ccc(NC(=O)c2ccc(Cl)cc2)c[n+]1[O-]` gave a kinetic solubility of more than 41.8 µg/mL.
To `O=C(CCn1c(=O)oc2ccccc21)NCCCN1CCOCC1` belongs 43.2 µg/mL (≈ 130 µM).
